Laboratory results: patent US20240417412A1, “HETEROCYCLIC COMPOUNDS AND METHODS OF USE” (AMGEN INC., priority 2022, published 2024)
pIC50: −log10 of the molar value.

Legend:
p-ERK (AsPC-1 cells) = test: Phospho-ERK1/2 MSD Assay; assay type: cell-based; settings: Homo sapiens, ASPC1, 2 h, read-out: 2 h p-ERK (AsPC-1 cells), IC50 (μM), AsPC-1 cells, 2 hours compound treatment
Description: Sixteen hours prior to compound treatment, AsPC-1 cells were seeded in 96-well cell culture plates at a density of 25,000 cells/well and incubated at 37° C., 5% CO2. A compound dose-response titration was diluted in growth media, added to appropriate wells of a cell culture plate, and then incubated at 37° C., 5% CO2 for 2 hours. […] Phosphorylation of ERK1/2 in compound-treated lysates was assayed using Phospho-ERK1/2 Whole Cell Lysate kits (Meso Scale Discovery K151DWD) according to the manufacturer's protocol. Assay plates were read on a Meso Scale Discovery Sector Imager 6000, and data were analyzed using a 4-parameter logistic model to calculate IC50 values.

KRAS G12D [1] = biological target: KRAS G12D (Homo sapiens, UniProt P01116, C118A/G12D); test: KRAS G12D Coupled Nucleotide Exchange Assay; assay type: biochemical; settings: GDP-bound KRAS G12D/C118A, 2 hours pre-incubation, SOS-mediated nucleotide exchange, AlphaScreen
KRAS G12D (Homo sapiens, UniProt P01116, C118A/G12D), sequence (P01116 1-169 isoform P01116-2 G12D/C118A): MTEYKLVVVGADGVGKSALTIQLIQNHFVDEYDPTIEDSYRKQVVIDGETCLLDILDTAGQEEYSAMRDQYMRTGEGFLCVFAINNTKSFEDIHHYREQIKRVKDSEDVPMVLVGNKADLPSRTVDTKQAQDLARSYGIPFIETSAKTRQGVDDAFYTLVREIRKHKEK
Description: The assay plates were then read on a PerkinElmer EnVision Multilabel Reader, using AlphaScreen® technology, and data were analyzed using a 4-parameter logistic model to calculate IC50 values.

KRAS G12D [2] = biological target: KRAS G12D (Homo sapiens, UniProt P01116, G12D); test: KRAS G12D TR-FRET Assay; settings: His-tagged KRAS G12D, biotinylated KRPep-2d, read-out: KRAS G12D Binding IC50
KRAS G12D (Homo sapiens, UniProt P01116, G12D), sequence (P01116 1-188 isoform P01116-2 G12D): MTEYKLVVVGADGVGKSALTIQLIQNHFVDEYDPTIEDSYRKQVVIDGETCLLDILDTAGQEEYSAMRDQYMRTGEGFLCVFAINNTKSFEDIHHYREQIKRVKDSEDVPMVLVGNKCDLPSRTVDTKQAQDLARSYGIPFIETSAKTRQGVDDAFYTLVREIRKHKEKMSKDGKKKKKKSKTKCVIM
Description: The plate was incubated for 30 minutes at room temperature. Biotinylated KRPep-2d substrate (Amgen) was diluted to 20 nM in Assay Buffer and 2 uL was added to all wells and incubated for 1 hour at room temperature. Detection Reagent (0.4 nM LANCE Eu-W1024 Anti-6×His (Perkin Elmer AD0401), 5 nM streptavidin-d2 (Cisbio 610SADLA)) was prepared in Assay Buffer, then 4 μL was added to the plate and incubated for 1 hour at room temperature.

| Structure (SMILES) | IC50 (p-ERK (AsPC-1 cells)) | pIC50 (KRAS G12D [1]) | pIC50 (KRAS G12D [2]) |
| --- | --- | --- | --- |
| CCc1c(F)ccc2cc(O)cc(-c3ncc4c(N5CCCC6(CCC(=O)N6)C5)nc(OC[C@@]56CCCN5C[C@H](F)C6)nc4c3F)c12 (stereo partly drawn) [Example 28, 7-(7-(8-Ethyl-7-fluoro-3-hydroxynaphthalen-1-yl)-8-fluoro-2-(((2R,7aS)-2-fluorotetrahydro-1H-pyrrolizin-7a(5H)-yl)methoxy)pyrido[4,3-d]pyrimidin-4-yl)-1,7-diazaspiro[4.5]decan-2-one] | 0.923 µM | 8.30 | 8.52 |
| C#Cc1c(F)ccc2cccc(-c3ncc4c(N5CCCC6(CNC(=O)C6)C5)nc(OC[C@@]56CCCN5C[C@H](F)C6)nc4c3F)c12 (stereo partly drawn) [Example 29, 7-(7-(8-Ethynyl-7-fluoronaphthalen-1-yl)-8-fluoro-2-(((2R,7aS)-2-fluorotetrahydro-1H-pyrrolizin-7a(5H)-yl)methoxy)pyrido[4,3-d]pyrimidin-4-yl)-2,7-diazaspiro[4.5]decan-3-one] | 2.04 µM | 8.05 | 8.00 |
| CCc1c(F)ccc2cccc(-c3ncc4c(N5CCCC6(CNC(=O)C6)C5)nc(OC[C@@]56CCCN5C[C@H](F)C6)nc4c3F)c12 (stereo partly drawn) [Example 30, 7-(7-(8-Ethyl-7-fluoronaphthalen-1-yl)-8-fluoro-2-(((2R,7aS)-2-fluorotetrahydro-1H-pyrrolizin-7a(5H)-yl)methoxy)pyrido[4,3-d]pyrimidin-4-yl)-2,7-diazaspiro[4.5]decan-3-one] | 1.98 µM | 7.80 | 7.72 |
| CCc1c(F)ccc2cc(O)cc(-c3ncc4c(N5CCCC6(CCOC6)C5)nc(OC[C@@]56CCCN5C[C@H](F)C6)nc4c3F)c12 (stereo partly drawn) [Example 33, 5-Ethyl-6-fluoro-4-(8-fluoro-2-(((2R,7aS)-2-fluorotetrahydro-1H-pyrrolizin-7a(5H)-yl)methoxy)-4-(2-oxa-7-azaspiro[4.5]decan-7-yl)pyrido[4,3-d]pyrimidin-7-yl)naphthalen-2-ol] | 0.452 µM | 7.92 | 8.10 |
| CCc1c(F)ccc2cc(O)cc(-c3ncc4c(N5CCC6(CC(O)C6)C5)nc(OC[C@@]56CCCN5C[C@H](F)C6)nc4c3F)c12 (stereo partly drawn) [Example 37, 6-(7-(8-Ethyl-7-fluoro-3-hydroxynaphthalen-1-yl)-8-fluoro-2-(((2R,7aS)-2-fluorotetrahydro-1H-pyrrolizin-7a(5H)-yl)methoxy)pyrido[4,3-d]pyrimidin-4-yl)-6-azaspiro[3.4]octan-2-ol] | 2.53 µM | 7.42 | 7.07 |
| CCc1c(F)ccc2cc(O)cc(-c3ncc4c(N5CCCC6(CCS(=N)(=O)C6)C5)nc(OC[C@@]56CCCN5C[C@H](F)C6)nc4c3F)c12 (stereo partly drawn) [Example 39, 7-(7-(8-Ethyl-7-fluoro-3-hydroxynaphthalen-1-yl)-8-fluoro-2-(((2R,7aS)-2-fluorotetrahydro-1H-pyrrolizin-7a(5H)-yl)methoxy)pyrido[4,3-d]pyrimidin-4-yl)-2-imino-216-thia-7-azaspiro[4.5]decane 2-oxide] | 2.53 µM | 8.52 | 8.70 |
| CCc1c(F)ccc2cc(O)cc(-c3ncc4c(N5CCCC6(COC(=O)N6)C5)nc(OC[C@@]56CCCN5C[C@H](F)C6)nc4c3F)c12 (stereo partly drawn) [Example 40, 7-(7-(8-Ethyl-7-fluoro-3-hydroxynaphthalen-1-yl)-8-fluoro-2-(((2R,7aS)-2-fluorotetrahydro-1H-pyrrolizin-7a(5H)-yl)methoxy)pyrido[4,3-d]pyrimidin-4-yl)-3-oxa-1,7-diazaspiro[4.5]decan-2-one] | 4.32 µM | 8.40 | 8.52 |
| CCc1c(F)ccc2cc(O)cc(-c3ncc4c(N5CCC6(CC5)CNC(=O)O6)nc(OC[C@@]56CCCN5C[C@H](F)C6)nc4c3F)c12 [Example 41, 8-(7-(8-Ethyl-7-fluoro-3-hydroxynaphthalen-1-yl)-8-fluoro-2-(((2R,7aS)-2-fluorotetrahydro-1H-pyrrolizin-7a(5H)-yl)methoxy)pyrido[4,3-d]pyrimidin-4-yl)-1-oxa-3,8-diazaspiro[4.5]decan-2-one] | > 10 µM | 8.00 | 7.72 |
| CCc1c(F)ccc2cc(O)cc(-c3ncc4c(N5CCC6(CC5)COC(=O)N6)nc(OC[C@@]56CCCN5C[C@H](F)C6)nc4c3F)c12 [Example 42, 8-(7-(8-Ethyl-7-fluoro-3-hydroxynaphthalen-1-yl)-8-fluoro-2-(((2R,7aS)-2-fluorotetrahydro-1H-pyrrolizin-7a(5H)-yl)methoxy)pyrido[4,3-d]pyrimidin-4-yl)-3-oxa-1,8-diazaspiro[4.5]decan-2-one] | 3.18 µM | 8.30 | 8.15 |
| CCc1c(F)ccc2cc(O)cc(-c3ncc4c(N5CCCC6(C5)CC6(F)F)nc(OC[C@@]56CCCN5C[C@H](F)C6)nc4c3F)c12 (stereo partly drawn) [Example 44, 4-(4-(1,1-Difluoro-5-azaspiro[2.5]octan-5-yl)-8-fluoro-2-(((2R,7aS)-2-fluorotetrahydro-1H-pyrrolizin-7a(5H)-yl)methoxy)pyrido[4,3-d]pyrimidin-7-yl)-5-ethyl-6-fluoronaphthalen-2-ol] | 0.252 µM | 8.52 | 8.52 |
| CCc1c(F)ccc2cc(O)cc(-c3ncc4c(N5CCOCC6(CC(=O)N6)C5)nc(OC[C@@]56CCCN5C[C@H](F)C6)nc4c3F)c12 (stereo partly drawn) [Example 53, 9-(7-(8-Ethyl-7-fluoro-3-hydroxynaphthalen-1-yl)-8-fluoro-2-(((2R,7aS)-2-fluorotetrahydro-1H-pyrrolizin-7a(5H)-yl)methoxy)pyrido[4,3-d]pyrimidin-4-yl)-6-oxa-1,9-diazaspiro[3.6]decan-2-one] | 0.182 µM | 8.70 | 8.70 |
